From patent US20210309685A1, “AMINO ACID SALTS OF NICOTINIC ACID MONONUCLEOTIDE AND NICOTINAMIDE MONONUCLOETIDE AS ANTI-AGEING AGENTS” (Life Biosciences, Inc., priority 2018, published 2021)

System: COV434 cells
Assay: NAD cell assay (NAD cycling method) in COV434 cells
Type: cell-based
Details: cellular NAD level, 200 uM, 4 hr, mole per mole versus parent NMN (NMN salts) or NaMN (NaMN salts), normalised to protein
Method: NAD levels were assayed based on the NAD cycling method of Zhu and Rand, PLoS One (2012), herein incorporated by reference. COV434 cells were maintained in 6 well plates and treated with the indicated compounds at a concentration of 200 uM for 4 hr. Media was removed, plates were washed in cold PBS and cells were scraped down in NAD extraction buffer containing 10 mM nicotinamide, 50 mM Tris HCl, 0.1% Triton X-100. Cells were homogenised by sonication for 5 seconds, and samples were centrifuged at 7,000 g for 5 min at 4 degrees. Aliquots were taken for later protein assay, and samples were then passed through 10 kDa amicon filters at 14,000 g, 30 min at 4 degrees to remove proteins from the sample. Each sample was measured in technical triplicate, with 25 μL sample added to 100 μL ADH cycling mix (0.2 mg/ml alcohol dehydrogenase enzyme, 2% ethanol, 100 mM Tris pH 8.5). Samples were allowed to cycle for 10 min at room temperature, followed by 50 μL addition of an MTT/PMS solution (0.1 mM phenazine methosulfate, 0.8 mM 3-(4,5-Dimethylthiazol-2-yl)-2,5-diphenyltetrazolium bromide), 100 mM Tris-HCl pH 8.5). Plates were then incubated for 15 min and absorbance was measured at 570 nm. NAD concentrations were extrapolated from a standard curve, and normalised to protein concentrations determined by BCA protein assay.
The adjusted fold increase is obtained through a direct comparison on a mole per mole basis between the compared salt and its parent counterpart. In other words, the instant salts derived from NMN parent molecule will only have their NAD activity level measured against NMN based on the same amount (mole) of salt tested in the cell. Likewise those salts derived from NaMN will have their NAD cell activity measured against NaMN. For example, the fold increase of compound I-002 is based on the NAD activity observed in a direct comparison for the same amount of mole of I-002 tested in the cell and that of the NMN parent. Similarly, the fold increase of I-003 is based on the direct comparison with NaMN.

O=C([O-])c1ccc[n+]([C@@H]2O[C@H](COP(=O)(O)O)[C@@H](O)[C@H]2O)c1 [Compound I-001, (S)-1-Carboxy-2-methylpropan-1-aminium 1-((2R,3R,4S,5R)-5-(((hydrogenphosphonato)oxy)methyl)-3,4-dihydroxytetrahydrofuran-2-yl)pyridin-1-ium-3-carboxylate]
FOLD increase adjusted for MW (compared to parent molecule): 1.61 fold

NC(=O)c1ccc[n+]([C@@H]2O[C@H](COP(=O)([O-])O)[C@@H](O)[C@H]2O)c1 [Compound I-002, (S)-1-Carboxy-2-methylpropan-1-aminium ((2R, 3S, 4R, 5R)-5-(3-carbamoylpyridin-1-ium-1-yl)-3,4-dihydroxytetrahydrofuran-2-yl)methyl phosphate]
FOLD increase adjusted for MW (compared to parent molecule): 1.24 fold

O=C([O-])c1ccc[n+]([C@@H]2O[C@H](COP(=O)(O)O)[C@@H](O)[C@H]2O)c1 [Compound I-003, (S)-4-Amino-1-carboxy-4-oxobutan-1-aminium 1-((2R3R,4S,5R)-5-(((hydrogenphosphonato)oxy)methyl)-3,4-dihydroxytetrahydrofuran-2-yl)pyridin-1-ium-3-carboxylate]
FOLD increase adjusted for MW (compared to parent molecule): 1.89 fold

O=C([O-])c1ccc[n+]([C@@H]2O[C@H](COP(=O)(O)O)[C@@H](O)[C@H]2O)c1 [Compound I-004, Bis((S)-1-Carboxy-2-methylpropan-1-aminium)-1-((2R,3R,4S,5R)-3,4-dihydroxy-5-((phosphonatooxy)methyl)tetrahydrofuran-2-yl)pyridin-1-ium-3-carboxylate]
FOLD increase adjusted for MW (compared to parent molecule): 1.99 fold

O=C([O-])c1ccc[n+]([C@@H]2O[C@H](COP(=O)(O)O)[C@@H](O)[C@H]2O)c1 [Compound I-005, Bis((S)-4-Amino-1-carboxy-4-oxobutan-1-aminium)-1-((2R,3R,4S,5R)-3,4-dihydroxy-5-((phosphonatooxy)methyl)tetrahydrofuran-2-yl)pyridin-1-ium-3-carboxylate]
FOLD increase adjusted for MW (compared to parent molecule): 3.05 fold

O=C([O-])c1ccc[n+]([C@@H]2O[C@H](COP(=O)(O)O)[C@@H](O)[C@H]2O)c1 [Compound I-006, (S)-1-Carboxy-2-(1H-imidazol-4-yl)ethanaminium 1-((2R,3R,4S,5R)-5-(((hydrogenphosphonato)oxy)methyl)-3,4-dihydroxytetrahydrofuran-2-yl)pyridin-1-ium-3-carboxylate]
FOLD increase adjusted for MW (compared to parent molecule): 1.64 fold

O=C([O-])c1ccc[n+]([C@@H]2O[C@H](COP(=O)(O)O)[C@@H](O)[C@H]2O)c1 [Compound I-008, Bis((S)-1-Carboxy-2-(1H-imidazol-4-yl)ethanaminium)-1-((2R,3R,4S,5R)-3,4-dihydroxy-5-((phosphonatooxy)methyl)tetrahydrofuran-2-yl)pyridin-1-ium-3-carboxylate]
FOLD increase adjusted for MW (compared to parent molecule): 2.45 fold

O=C([O-])c1ccc[n+]([C@@H]2O[C@H](COP(=O)(O)O)[C@@H](O)[C@H]2O)c1 [Compound I-009, (S)-1-Carboxy-4-guanidinobutan-1-aminium 1-((2R,3R,4S,5R)-5-(((hydrogenphosphonato)oxy)methyl)-3,4-dihydroxytetrahydrofuran-2-yl)pyridin-1-ium-3-carboxylate]
FOLD increase adjusted for MW (compared to parent molecule): 2.03 fold

O=C([O-])c1ccc[n+]([C@@H]2O[C@H](COP(=O)(O)O)[C@@H](O)[C@H]2O)c1 [Compound I-011, (S)-1-Carboxy-2-(1H-indol-3-yl)ethanaminium 1-((2R,3R,4S,5R)-5-(((hydrogenphosphonato)oxy)methyl)-3,4-dihydroxytetrahydrofuran-2-yl)pyridin-1-ium-3-carboxylate]
FOLD increase adjusted for MW (compared to parent molecule): 2.35 fold

NC(=O)c1ccc[n+]([C@@H]2O[C@H](COP(=O)([O-])O)[C@@H](O)[C@H]2O)c1 [Compound I-014, (S)-1-Carboxy-2-(1H-indol-3-yl)ethanaminium ((2R,3S,4R,5R)-5-(3-carbamoylpyridin-1-ium-1-yl)-3,4-dihydroxytetrahydrofuran-2-yl)methyl phosphate]
FOLD increase adjusted for MW (compared to parent molecule): 1.51 fold

O=C([O-])c1ccc[n+]([C@@H]2O[C@H](COP(=O)(O)O)[C@@H](O)[C@H]2O)c1 [Compound I-015, Bis((S)-1-Carboxy-4-guanidinobutan-1-aminium)-1-((2R,3R,4S,5R)-3,4-dihydroxy-5-((phosphonatooxy)methyl)tetrahydrofuran-2-yl)pyridin-1-ium-3-carboxylate]
FOLD increase adjusted for MW (compared to parent molecule): 2.04 fold

O=C([O-])c1ccc[n+]([C@@H]2O[C@H](COP(=O)(O)O)[C@@H](O)[C@H]2O)c1 [Compound I-016, Bis((S)-1,3-Dicarboxypropan-1-aminium)-1-((2R,3R,4S,5R)-3,4-dihydroxy-5-((phosphonatooxy)methyl)tetrahydrofuran-2-yl)pyridin-1-ium-3-carboxylate]
FOLD increase adjusted for MW (compared to parent molecule): 2.29 fold

O=C([O-])c1ccc[n+]([C@@H]2O[C@H](COP(=O)(O)O)[C@@H](O)[C@H]2O)c1 [Compound I-017, Bis((S)-1-Carboxy-2-(1H-indol-3-yl)ethanaminium)-1-((2R,3R,4S,5R)-3,4-dihydroxy-5-((phosphonatooxy)methyl)tetrahydrofuran-2-yl)pyridin-1-ium-3-carboxylate]
FOLD increase adjusted for MW (compared to parent molecule): 2.40 fold

O=C(O)c1ccc[n+]([C@@H]2O[C@H](COP(=O)([O-])O)[C@@H](O)[C@H]2O)c1 [Compound I-020, Bis((1S,2R)-1-carboxy-2-hydroxypropan-1-aminium)-1-((2R,3R,4S,5R)-3,4-dihydroxy-5-((phosphonatooxy)methyl)tetrahydrofuran-2-yl)pyridin-1-ium-3-carboxylate]
FOLD increase adjusted for MW (compared to parent molecule): 1.52 fold

NC(=O)c1ccc[n+]([C@@H]2O[C@H](COP(=O)([O-])O)[C@@H](O)[C@H]2O)c1 [Compound I-022, (S)-2-carboxypyrrolidin-1-ium ((2R,3S,4R,5R)-5-(3-carbamoylpyridin-1-ium-1-yl)-3,4-dihydroxytetrahydrofuran-2-yl)methyl phosphate]
FOLD increase adjusted for MW (compared to parent molecule): 1.33 fold

O=C([O-])c1ccc[n+]([C@@H]2O[C@H](COP(=O)(O)O)[C@@H](O)[C@H]2O)c1 [Compound I-026, Bis((S)-5-amino-5-carboxypentan-1-aminium)-1-((2R,3R,4S,5R)-3,4-dihydroxy-5-((phosphonatooxy)methyl)tetrahydrofuran-2-yl)pyridin-1-ium-3-carboxylate]
FOLD increase adjusted for MW (compared to parent molecule): 2.47 fold

O=C(O)c1ccc[n+]([C@@H]2O[C@H](COP(=O)([O-])O)[C@@H](O)[C@H]2O)c1 [Compound I-027, (S)-1-carboxy-3-(methylthio)propan-1-aminium 1-((2R,3R,4S,5R)-5-(((hydrogenphosphonato)oxy)methyl)-3,4-dihydroxytetrahydrofuran-2-yl)pyridin-1-ium-3-carboxylate]
FOLD increase adjusted for MW (compared to parent molecule): 1.49 fold

(1S,2S)-1-Carboxy-2-methylbutan-1-aminium ((2R,3S,4R,5R)-5-(3-carbamoylpyridin-1-ium-1-yl)-3,4-dihydroxytetrahydrofuran-2-yl)methyl phosphate [Compound I-062]
FOLD increase adjusted for MW (compared to parent molecule): 1.32 fold

(R)-1-Carboxy-2-methylpropan-1-aminium 1-((2R,3R,4S,5R)-3,4-dihydroxy-5-((phosphonatooxy)methyl)tetrahydrofuran-2-yl)pyridin-1-ium-3-carboxylate [Compound I-065]
FOLD increase adjusted for MW (compared to parent molecule): 1.54 fold

(S)-1-Carboxy-3-methylbutan-1-aminium 1-((2R,3R,4S,5R)-3,4-dihydroxy-5-((phosphonatooxy)methyl)tetrahydrofuran-2-yl)pyridin-1-ium-3-carboxylate [Compound I-058]
FOLD increase adjusted for MW (compared to parent molecule): 1.81 fold

(S)-1-Carboxy-3-methylbutan-1-aminium ((2R,3S,4R,5R)-5-(3-carbamoylpyridin-1-ium-1-yl)-3,4-dihydroxytetrahydrofuran-2-yl)methyl phosphate [Compound I-059]
FOLD increase adjusted for MW (compared to parent molecule): 1.80 fold
